From US20260297129A1, “PEPTIDES AS SELECTIVE IL-23 RECEPTOR INHIBITORS” (SANOFI, priority 2023, published 2026)
In brackets after ≈: the same amount, converted by molar mass. Read-outs that look alike come from different tables or passages of the source. Numbered stars: 1 amine (or outer) side, 2 acyl side, 3 side chain; on linkers, the order of the positions; unused ones are H or OH. Bridge positions count the residues as written; N and C are the ends. Square brackets hold non-standard residues; d marks the D form. Peptide text beside a SMILES is read from it. * marks the point of attachment. Lys(Me,(CH2)4NMe(CH2)4CO) = CN(CCCCC(=O)[*:3])CCCCN(C)CCCC[C@H](N[*:1])C(=O)[*:2]; Trp(7-Me) = Cc1cccc2c(C[C@H](N)C(=O)O)c[nH]c12; NH(2-(3-pyridyl)ethyl) = c1cncc(CCN*)c1; Sebacoyl = O=C(CCCCCCCCC(=O)[*:2])[*:1]; NH(CH2)9CO = O=C(CCCCCCCCCN[*:1])[*:2]; 2Nal = N[C@@H](Cc1ccc2ccccc2c1)C(=O)O; X4 = O=C(CCCCCCCCCCCCCCCN[*:1])[*:2]; 3Pal = N[C@@H](Cc1cccnc1)C(=O)O; Lys(Me) = CNCCCC[C@H](N)C(=O)O; Thp = NC1(C(=O)O)CCOCC1; Me2NCH2CH2 = CN(C)CC*; Aib = CC(C)(N)C(=O)O; Aoc = NCCCCCCCC(=O)O; Sar = CNCC(=O)O

What was measured:
human IL-23R = biological target: T1, human IL-23R (Homo sapiens, UniProt Q5VWK5); test: Inhibition of IL-23 binding to IL-23R as measured by ELISA (Table 8); conditions: human IL23 coated 1 μg/ml; human IL-23R-Fc 0.1 μg/ml; 60 min; read-out: Human ELISA IL23/IL23R IC50
T1 sequence (Q5VWK5 24-353 limits assumed): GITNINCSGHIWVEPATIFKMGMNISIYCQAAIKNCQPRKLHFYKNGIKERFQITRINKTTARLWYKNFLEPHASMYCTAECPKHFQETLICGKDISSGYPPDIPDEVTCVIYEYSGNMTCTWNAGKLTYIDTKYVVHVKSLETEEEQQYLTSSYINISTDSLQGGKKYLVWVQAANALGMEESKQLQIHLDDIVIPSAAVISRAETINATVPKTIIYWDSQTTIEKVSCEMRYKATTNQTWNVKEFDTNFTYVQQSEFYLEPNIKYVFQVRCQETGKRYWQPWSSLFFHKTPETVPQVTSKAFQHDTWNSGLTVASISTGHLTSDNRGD
Method: Antagonism of compounds for human interleukin-23 receptor inhibitors, was determined by an ELISA assay.
A 384-well plate was coated with 50 μl/well of human IL23 at a final concentration of 1 μg/ml and incubated overnight at 4° C. The wells were washed 3 times with 80 μl wash buffer and blocked with 80 μl blocking buffer for 60 minutes at room temperature and washed again. 20 μl of serially diluted test peptides was added to each well and subsequently 20 μl of recombinant human IL-23R-Fc chimera at final concentration of 0.1 μg/ml. The plate was incubated for 60 minutes at room temperature. After the wells were washed, bound IL23R-Fc was detected with goat anti-hu-IgG1-HRP antibody. Signals were visualized with QUANTABLU fluorogenic peroxidase substrate.

[1] = Protease stability in simulated intestinal fluids (FaSSIF) (Table 7); format: in vitro ADME; conditions: fassif with pancreatin, 37° C.; for remaining at 1 h, 1 µM: 60 min, read-out: Remaining percentage of peptide compound, FaSSIF 60 (min); for remaining at 2 h, 1 µM: 120 min, read-out: Remaining percentage of peptide compound, FaSSIF 120 (min); for remaining at 4 h, 1 µM: 240 min, read-out: Remaining percentage of peptide compound, FaSSIF 240 (min)
Outline: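 Percent parent remaining was derived from LC-MS/MS peak areas normalised to time 0, set at 100%. Sampling at 0, 60, 120 and 240 min, quenched in ethanol with 0.1% HCOOH. Final peptide 1 μM, 37° C, SIF containing pancreatin.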

[2] = Protease stability in simulated gastric fluids (FaSSGF) (Table 7); format: in vitro ADME; conditions: fassgf with pepsin, 60 min, 37° C., read-out: Remaining percentage of peptide compound, FaSSGF 60 (min)
Outline: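 Peptides at 1 μM final were incubated at 37 °C in simulated gastric fluid with pepsin (320 mg per 100 mL SGF concentrate). Samples were quenched with ethanol (0.1% HCOOH) at 0, 60, 120 and 240 min and analysed by LC-MS/MS. Percent remaining is the peak area relative to T0 (100%).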

[3] = test system: IL-23 induced STAT3 signaling (IL-23 receptor) in HEK-Blue IL-23 cells; test: Inhibition of IL-23 induced STAT3 signaling in HEK-Blue IL-23 cells, SEAP reporter (Table 9); format: cell-based; conditions: human IL23 0.25 ng/ml, overnight, read-out: Inhibition of IL-23 induced pSTAT3 (IC50 nM)
Outline: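 STAT3-driven SEAP output measured at OD 620–655 nm after 45 min QUANTI-Blue development of supernatant, with dose-response fits. Peptides were given 60 min ahead of 0.25 ng/ml (final) human IL-23, followed by overnight culture at 37 °C; 10,000 HEK-Blue IL-23 cells per well.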

[4] = Solubility of peptide compounds in buffer formulations (Table 5); format: physicochemical; conditions: target 1 mg/ml
Outline: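 Solubility was quantified by UHPLC-UV, comparing 1:10-diluted filtrate peak areas with a DMSO reference standard and correcting for extinction coefficients. Samples were prepared from dried DMSO stock at 1 mg/mL nominal in pH 1.2 HCl, pH 6.5 or pH 7.4 phosphate (50 mM), and agitated 2 h.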

[5] = Buffer pH 1.1 (head; method: 50 mM HCl pH 1.2), 2 h agitation, read-out: Solubility, Buffer pH 1.1
[6] = aqueous buffer, 50 mM phosphate buffer pH 6.5, 2 h agitation, read-out: Solubility, Buffer pH 6.5
[7] = aqueous buffer, 50 mM phosphate buffer pH 7.4, 2 h agitation, read-out: Solubility, Buffer pH 7.4

SMILES	IC50 (human IL-23R)	remaining at 1 h, 1 µM [1]	remaining at 2 h, 1 µM [1]	remaining at 4 h, 1 µM [1]	remaining at 1 h, 1 µM [2]	IC50 [3]	solubility at 2 h [4, 5]	solubility at 2 h [4, 6]	solubility at 2 h [4, 7]
Cc1cccc2c(C[C@@H]3NC(=O)CCCCCCCCCNC(=O)CC[C@@H](C(=O)N[C@@H](CC(N)=O)C(=O)N[C@@H](Cc4cccnc4)C(=O)N(C)CC(N)=O)NC(=O)C(C)(C)NC(=O)[C@H](Cc4ccc5ccccc5c4)NC(=O)[C@H](Cc4ccc(OCCN(C)C)cc4)NC(=O)C4(CCOCC4)NC(=O)[C@H](CCC(N)=O)NC3=O)c[nH]c12 [compound 5] ([NH(CH2)9CO][Trp(7-Me)]Q[Thp]Y(Me2NCH2CH2)[2Nal][Aib]EN[3Pal][Sar]-NH2; lactam N-8)	0.64 nM	77%	74%	70%	87%	0.26 nM	≥ 1010 µg/mL	350 µg/mL (≈ 218 µM)	170 µg/mL (≈ 106 µM)
Cc1cccc2c(C[C@@H]3NC(=O)CCCCCCCCC(=O)N(C)CCCC[C@@H](C(=O)N[C@@H](CC(N)=O)C(=O)N[C@@H](Cc4cccnc4)C(=O)N(C)CC(N)=O)NC(=O)C(C)(C)NC(=O)[C@H](Cc4ccc5ccccc5c4)NC(=O)[C@H](Cc4ccc(OCCN(C)C)cc4)NC(=O)C4(CCOCC4)NC(=O)[C@H](CCC(N)=O)NC3=O)c[nH]c12 [compound 19] ([Trp(7-Me)]Q[Thp]Y(Me2NCH2CH2)[2Nal][Aib][Lys(Me)]N[3Pal][Sar]-NH2; linker N-7 via Sebacoyl)	0.63 nM	80%	78%	74%	97%	0.24 nM	≥ 1390 µg/mL	120 µg/mL (≈ 73.6 µM)	80 µg/mL (≈ 49.1 µM)
Cc1cccc2c(C[C@@H]3NC(=O)CCCCCCCCCCCCCCCNC(=O)CC[C@@H](C(=O)N[C@@H](CC(N)=O)C(=O)N[C@@H](Cc4cccnc4)C(=O)N(C)CC(N)=O)NC(=O)C(C)(C)NC(=O)[C@H](Cc4ccc5ccccc5c4)NC(=O)[C@H](Cc4ccc(OCCN(C)C)cc4)NC(=O)C4(CCOCC4)NC(=O)[C@H](CCC(N)=O)NC3=O)c[nH]c12 [compound 3] ([X4][Trp(7-Me)]Q[Thp]Y(Me2NCH2CH2)[2Nal][Aib]EN[3Pal][Sar]-NH2; lactam N-8)	1.33 nM	84%	81%	81%	71%	9.92 nM	≥ 990 µg/mL	< 10 µg/mL	< 10 µg/mL
Cc1cccc2c(C[C@@H]3NC(=O)CCCCCCCNC(=O)CC[C@@H](C(=O)N[C@@H](CC(N)=O)C(=O)N[C@@H](Cc4cccnc4)C(=O)N(C)CC(N)=O)NC(=O)C(C)(C)NC(=O)[C@H](Cc4ccc5ccccc5c4)NC(=O)[C@H](Cc4ccc(OCCN(C)C)cc4)NC(=O)C4(CCOCC4)NC(=O)[C@H](CCC(N)=O)NC3=O)c[nH]c12 [compound 6] ([Aoc][Trp(7-Me)]Q[Thp]Y(Me2NCH2CH2)[2Nal][Aib]EN[3Pal][Sar]-NH2; lactam N-8)	0.67 nM	86%	77%	77%	88%	4.77 nM	≥ 1240 µg/mL	≥ 1040 µg/mL	≥ 1090 µg/mL
Cc1cccc2c(C[C@@H]3NC(=O)CCCCN(C)CCCCN(C)CCCC[C@@H](C(=O)NCC(=O)NCCc4cccnc4)NC(=O)C(C)(C)NC(=O)[C@H](Cc4ccc5ccccc5c4)NC(=O)[C@H](Cc4ccc(OCCN(C)C)cc4)NC(=O)C4(CCOCC4)NC(=O)[C@H](CCC(N)=O)NC3=O)c[nH]c12 [compound 24] ([Trp(7-Me)]Q[Thp]Y(Me2NCH2CH2)[2Nal][Aib][Lys(Me,(CH2)4NMe(CH2)4CO)]G-{NH(2-(3-pyridyl)ethyl)}; lactam N-7)	0.84 nM	–	–	–	–	6.95 nM	≥ 990 µg/mL	≥ 900 µg/mL	≥ 880 µg/mL
